# Reference: patent US5100905A, “Method for inhibiting growth of bacteria, fungi or algae by treatment with biocide composition” (Rohm and Haas Company, priority 1991, dated 1992)
# Where “and” joins values, the source holds several entries; their conditions need not be identical. Equal entries are not always repeated.
# System: skin of guinea pigs
# Experiment: Sensitization study, closed-patch test of Buehler
# Type: in vivo, guinea pig
# Procedure: The study was conducted to determine the sensitization potential of the synergistic combination of 3.5% 651 and 96.5% 573. The results were compared to the sensitization potential of 886 (containing 75% 651 and 25% 573) and pure 573.
# The closed-patch test of Buehler Current Concepts in Cutaneous Toxicology, (New York: Academic Press 1970), pp. 25-40, is used to investigate the sensitization potential of the materials in the guinea pig. The combination (1.5% total active ingredient) at aqueous concentrations of 1000, 5000, 10000 and 15000 ppm a.i., the 886 (13.9% total active ingredient) at aqueous concentrations of 250, 500 and 750 ppm a.i. and the 573 (solid containing 99.5% total active ingredient) at aqueous concentrations of 5000, 15000 and 30000 ppm a.i. were applied topically to the skin of guinea pigs by means of occluded patches (0.4 ml per patch). All guinea pigs (10 per group at each concentration) received a total of ten 6-hr induction exposures over a 22 day period. In addition, a group of guinea pigs were treated with dry patches only and served as the naive control group. Two weeks after the last induction treatment guinea pigs induced with the combination were challenged with 3 concentrations of the combination in distilled water (1000, 5000 and 15000 ppm a.i.), those induced with 886 were challenged with 3 concentrations of 886 in distilled water (100, 250 and 750 ppm a.i.) and those induced with 573 alone were challenged with 3 concentrations of 573 in distilled water (1000, 5000 and 15000 ppm a.i.). Twenty-four (24) and 48 hr after the challenge doses, the application sites were examined for erythema reactions and graded from 0 to 3 in accordance with a pre-established scoring system. Reactions graded 1 or greater were judged to be skin sensitization reactions.
# ^a Guinea pigs received ten (6 hr.) induction exposures of the ten
# materials (0.4 ml per exposure) over a 22 day period.
# ^b All guinea pigs received 0.4 ml of challenge doses as specified tw
# weeks after the last induction dose.
# ^c Guinea pigs received sham treatment only.
smiles,measurement,setting,value
"Cn1sccc1=O [compound 573, 2-methyl-4-isothiazolin-3-one]",Overall incidence of responses,"5000 and 15000 ppm induction, 1000, 5000 and 15000 ppm challenge",7 out of a possible 60 responses
same,Erythema,"induction 5000 and 15000 ppm a.i., challenge 1000 ppm a.i.",no erythema was observed
same,Erythema responses of 1 or greater at 24 and/or 48 hours,"induction 5000 ppm, challenge 1000 ppm (573)",0/10
same,Erythema responses of 1 or greater at 24 and/or 48 hours,"induction 5000 ppm, challenge 5000 ppm (573)",1/10
same,Erythema responses of 1 or greater at 24 and/or 48 hours,"induction 5000 ppm, challenge 15000 ppm (573)",2/10
same,Erythema responses of 1 or greater at 24 and/or 48 hours,"induction 15000 ppm, challenge 1000 ppm (573)",0/10
same,Erythema responses of 1 or greater at 24 and/or 48 hours,"induction 15000 ppm, challenge 5000 ppm (573)",1/10
same,Erythema responses of 1 or greater at 24 and/or 48 hours,"induction 15000 ppm, challenge 15000 ppm (573)",3/10
same,Erythema responses of 1 or greater at 24 and/or 48 hours,"induction 30000 ppm, challenge 1000 ppm",1/9
same,Erythema responses of 1 or greater at 24 and/or 48 hours,"induction 30000 ppm, challenge 5000 ppm",2/9
same,Erythema responses of 1 or greater at 24 and/or 48 hours,"induction 30000 ppm, challenge 15000 ppm",3/9
same,Erythema responses of 1 or greater at 24 and/or 48 hours,"naive control (sham induction), challenge 15000 ppm 573",No erythema was observed and 0/10
